Results published in patent publication US9540649B2, “Method for opening tight junctions” (The Provost, Fellows and Scholars of the College of the …, priority 2007, dated 2017).
“Also recorded” adds a separate entry of the source.

Experiments:
iBRB = assay: MRI analysis of Gd-DTPA diffusion across the iBRB (eye); type: in vivo, mice; conditions: 48 hours post-injection
occludin = assay: Occludin expression following suppression of claudin-5 (Western blot, immunohistochemistry); type: in vivo, C57/Bl6 mice; conditions: all time points post-delivery of claudin-5 siRNA
BBB = BBB permeability to Hoechst H33342 (562 Da) and FD-4 (4,400 Da) co-perfusion, brain sections; type: in vivo, C57/Bl6 mice; conditions: for extravasation of FD-4 (4,400 Da) into brain parenchyma: any time point following siRNA injection
Procedure: (§1) In order to determine the permeability of brain and retinal microvessels to a molecule of 562 Daltons, mice were perfused through the left ventricle with 500 μl/g body weight of PBS containing 100 μg/ml Hoechst stain H33342 (Sigma Aldrich, Ireland) and 1 mg/ml FITC-Dextran-4 (FD-4) 24, 48, 72 hours and 1 week post-hydrodynamic delivery of claudin-5 siRNA. Following perfusion, the whole brain was dissected and placed in 4% PFA pH 7.4 overnight at 4° C. and subsequently washed 4×15 mins with PBS. Brains were then embedded in 4% agarose and 50 μm sections were cut using a Vibratome®. Whole eyes were removed and fixed with 4% PFA, and following washing with PBS and cryoprotection using a sucrose gradient, 12 μm cryosections were cut using a cryostat. Following analysis of retinal cryosections with an Olympus FluoView™ FV1000 Confocal microscope, images were oriented correctly using Adobe® Photoshop®.

[1] = test system: endothelial cells of heart, liver, lung and kidney; assay: Endothelial cell morphology of major organs (Griffonia simplicifolia-isolectin B4 staining); type: in vivo, mouse; conditions: all time points; vs control groups
Procedure: Following hydrodynamic injection of siRNA targeting claudin-5, cryosections were prepared of all the major organs, the heart, liver, lung and kidney. Sections were incubated overnight at 4° C. with HRP-conjugated Griffonia simplicifolia-isolectin B4 in order to stain the endothelial cells of organs.

claudin-5 [2] = assay: Immunohistochemical analysis of claudin-5 expression and localisation in brain microvessels; type: in vivo, C57/Bl6 mice
Procedure: (§2) Rapid high pressure, high volume tail vein injections were carried out (Kiang et al., 2005). Wild type C57/Bl6 mice of weight 20-30 g were individually restrained inside a 60-ml volume plastic tube. The protruding tail was warmed for 5 minutes prior to injection under a 60-W lamp and the tail vein clearly visualized by illumination from below. 20 micrograms of targeting siRNA, or non-targeting siRNA made up with PBS to a volume in mls of 10% of the body weight in grams or PBS alone, was injected into the tail vein at a rate of 1 ml/sec using a 26-gauge (26 G 3/8) needle. After 24, 48, 72 hours and 1 week, protein was isolated from total brain tissue by crushing brains to a fine powder in liquid N2 and subsequently using lysis buffer containing 62.5 mM Tris, 2% SDS, 10 mM Dithiothreitol, 10 μl protease inhibitor cocktail/100 ml (Sigma Aldrich, Ireland). The homogenate was centrifuged at 10,000 g for 20 mins @4° C., and the supernatant was removed for claudin-5 analysis.
Brain cryosections were blocked with 5% Normal Goat Serum (NGS) in PBS for 20 mins at room temperature. Primary antibody (Rabbit anti-Claudin-5, Zymed, California) was incubated on sections overnight at 4° C. […] A secondary rabbit IgG-Cy3 antibody was incubated with the sections at 37° C. for 2 hours followed by 3 washes with PBS. All sections were counterstained with DAPI for 30 seconds at a dilution of 1:5000 of a stock 1 mg/ml solution. Analysis of stained sections was performed with an Olympus FluoView™ FV1000 Confocal microscope.

BRB = BRB permeability to Hoechst (562 Da), retinal cryosections and flatmounts; type: in vivo, C57/Bl6 mice
Procedure: as §1

Tie-2 = Tie-2 expression following suppression of claudin-5 (Western blot); type: in vivo, C57/Bl6 mice; conditions: any time point post delivery of claudin-5 siRNA
claudin-5 [3] = assay: Claudin-5 expression in retina after siRNA injection (Western blot, retinal flatmounts); type: in vivo, mice
claudin-5 mRNA = assay: Real-time RT-PCR analysis of claudin-5 mRNA in brain post-injection of siRNA; type: in vivo, C57/Bl6 mice
Procedure: as §2
At the same time points post-delivery of siRNA total RNA was isolated from brains using Trizol (Invitrogen). RNA was then treated with RNase-free DNase (Promega, Madison, Wis., USA) and then chloroform extracted, isopropanol precipitated, washed with 75% RNA grade ethanol and resuspended in 100 μl RNase-free water.
RNA was analyzed by real-time RT-PCR using a Quantitect Sybr Green Kit as outlined by the manufacturer (Qiagen-Xeragon) on a LightCycler (Roche Diagnostics, Lewes, UK) under the following conditions: 50° C. for 20 min; 95° C. for 15 min; 38 cycles of 94° C. for 15 s, 57° C. for 20 s, 72° C. for 10 s.
cDNA fragments were amplified from claudin-5 and β-actin for each RNA sample a minimum of four times. Results were expressed as a percentage of those from the similarly standardized appropriate control experiment. The reciprocal values compared to the non-targeting control siRNA gave percentage suppression of claudin-5 expression. Mean values, standard deviations, and pooled t tests were calculated using GraphPad Prism©. Differences were deemed statistically significant at P<0.05.

[4] = listed as siRNA targeting claudin-5

Substance: claudin-5 siRNA: siRNA, sense CGUUGGAAAUUCUGGGUCUUU (SEQ ID NO: 1), antisense AGACCCAGAAUUUCCAACGUU (SEQ ID NO: 2) (listed as RNA, chemistry not given here)
- Gd-DTPA contrasting in the eye / iBRB integrity, MRI (iBRB): Strong contrasting
- Gd-DTPA contrasting in the eye / iBRB integrity, MRI (iBRB; [4]): iBRB was compromised
- occludin expression, Western blot (occludin): remain un-changed at all time points
- extravasation of Hoechst H33342 (562 Da) from brain microvessels (BBB; 24 hours and 48 hours post delivery): distinct staining of nuclei in surrounding neural and glial cells
- extravasation of Hoechst H33342 (562 Da) from brain microvessels (BBB; 24 hours and 48 hours post delivery, listed as siRNA targeting claudin-5): extravasation of Hoechsct was observed; also recorded: crossed the BBB
- extravasation of Hoechst H33342 (562 Da) from brain microvessels (BBB; 72 hours or 1 week post-injection): not evident
- extravasation of FD-4 (4,400 Da) into brain parenchyma (BBB): No extravasation of FD-4
- extravasation of FD-4 (4,400 Da) into brain parenchyma (BBB; [4]): no extravasation was evident; also recorded: failed to do so
- endothelial cell morphology in liver, lung, kidney and heart [1]: appeared similar at all time points and in all major organs
- claudin-5 staining pattern in brain microvessels, immunohistochemistry (claudin-5 [2]; 24 hours post delivery): decreased and non-continuous; also recorded: less intense
- claudin-5 staining pattern in brain microvessels, immunohistochemistry (claudin-5 [2]; 48 hours post injection): striking decrease in expression; also recorded: marked decrease; also recorded: dramatically reduced
- claudin-5 staining pattern in brain microvessels, immunohistochemistry (claudin-5 [2]; 48 hours post injection, listed as siRNA targeting claudin-5): highly fragmented and discontinuous
- claudin-5 staining pattern in brain microvessels, immunohistochemistry (claudin-5 [2]; 72 hours post-injection): evident, yet non-continuous; also recorded: evident, yet not as intense as the control groups; also recorded: still attenuated
- Hoechst staining in retinal flatmounts (BRB; 24 and 48 hours post injection): stain extravascular nuclei
- extravasation of Hoechst in 12 μm retinal cryosections (BRB; 24 hours post delivery): Inner Nuclear Layer (INL) appearing stained
- extravasation of Hoechst in 12 μm retinal cryosections (BRB; 48 hours post delivery): distinct Outer Nuclear Layer (ONL) staining
- extravasation of Hoechst H33342 from retinal microvessels, retinal cryosections (BRB; up to 48 hour post-delivery): staining the Inner Nuclear Layer (INL) and Outer Nuclear Layer (ONL) of the retina
- Tie-2 (140 kDa) expression, Western blot (Tie-2): no distinct changes
- claudin-5 expression in retinal flatmounts, immunohistochemistry (claudin-5 [3]; 24, 48 and 72 hours post injection, vs non-targeting siRNA): decreased localisation of claudin-5 at the periphery of endothelial cells
- claudin-5 expression in retinal protein lysates, Western blot (claudin-5 [3]; 48 hours post injection): decreased expression
- claudin-5 mRNA level, RT-PCR, brain (claudin-5 mRNA; 1 week post-injection, vs non-targeting control): not significantly changed
- claudin-5 mRNA levels suppressed with respect to the non-targeting control siRNA (claudin-5 mRNA; 24 hours post-injection): up to 95%
- claudin-5 mRNA level, RT-PCR, brain (claudin-5 mRNA; 24 hours post-injection, vs control groups): significantly decreased
- claudin-5 mRNA level, RT-PCR, brain (claudin-5 mRNA; 24 hours post-injection, vs control groups, listed as siRNA targeting claudin-5): significant decrease
- claudin-5 mRNA level, RT-PCR, brain (claudin-5 mRNA; 48 hours post-injection, vs control groups): showing suppression
- claudin-5 mRNA level, RT-PCR, brain (claudin-5 mRNA; 72 hours post-injection, vs non-targeting control): not significantly changed
